Test results from patent publication US8178506B2, “Oligomeric compounds and compositions for use in modulation of small non-coding RNAs” (Regulus Therapeutics Inc., priority 2003, dated 2012).
In the oligonucleotide strings, read from the 5' end, every base follows the letter of its sugar. An asterisk marks phosphorothioate; unmarked linkages are phosphodiester. Other units and linkages are bracketed, terminal groups are in braces. A string of capitals states the bases alone. e = 2'-O-(2-methoxyethyl) (MOE); [5mC] = 5-methylcytosine; d = 2'-deoxy (DNA)

Tested on: HeLa cells
Experiment: Cell cycle assay in HeLa cells
Assay type: cell-based, human
Conditions: for phase of the cell cycle in which cells arrest or delay: HeLa; for % cells in cell cycle phase: G1 / % cells in cell cycle phase: G2/M / % cells in cell cycle phase: S / % cells in cell cycle phase: aneuploid / % cells in cell cycle phase: subG1: 48 hours after treatment, relative to untreated control (UTC=100)
Experimental: In some embodiments, HeLa cells were plated on collagen-coated 24-well plates at 50,000-60,000 cells per well, and allowed to attach to wells overnight. In some embodiments, HeLa cells were synchronized by double thymidine block (cells were washed three times with PBS, then grown in 10% FBS containing 2 mM thymidine; then 19 hours later, cells were washed three times in PBS, 10% FBS for 9 hours; cells were then incubated in 10% FBS, 2 mM thymidine for 15 hours; then washed three times with PBS, 10% FBS and samples were taken every two hours over a 16 hour period). A portion of each time sample was fixed with ethanol and treated with propidium iodide and subjected to FACs analysis for determination of the percentage of cells in each phase of the cell cycle. […] HeLa cells treated with 10 μM cisplatin or 100 ng/ml nocodazole were used as controls for G1-phase and late G2/M-phases, respectively. From the remaining portion of each of these time samples, total RNA was isolated and used to assess the expression of cell cycle marker mRNAs using the real-time RT-PCR methods and/or used to screen microarrays to assess the expression of miRNAs over the course of the cell cycle. It was observed that several miRNAs are expressed in a cell-cycle-dependent manner. Shown in Table 30 are the mRNA levels of the E2F1 transcription factor and topoisomerase 2A (Top2A), which vary over the course of the cell cycle and can be used for comparison to the experimental groups for the confirmation of cell cycle phase. Data are an average of three trials.
In some embodiments, HeLa cells were also treated with oligomeric compounds targeting miRNAs. […] The medium was removed from the plates. Each well was washed in 250 μl of PBS. […] Control cells received LIPOFECTIN™ only. […] After 24 hours (Table 31) or 48 hours (Table 32), cells were prepared for flow cytometry analysis to generate a cell cycle profile. The cell cycle profile was analyzed with the ModFit program (Verity Software House, Inc., Topsham Me.).
The random-mer ISIS 29848 (SEQ ID NO: 737) was used as a negative control, and ISIS 183891 (SEQ ID NO: 847), targeting kinesin-like 1/Eg5, was included as a positive control. Data are expressed as percentage of cells in each phase relative to the untreated control (UTC); values above 100 are considered to indicate a delay or arrest in that phase of the cell cycle. […] In some cases, the same oligomeric compound was tested in repeated experiments.
In accordance with the present invention, certain oligomeric compounds targeting miRNAs were selected for dose response studies. Using the cell cycle assay described above, the cell cycle profiles of HeLa or A549 cells treated with varying concentrations of oligomeric compounds of the present invention were assessed.
HeLa cells were treated with 25-, 50-, 100- or 150 nM of the oligomeric compounds ISIS
Numbers 327902 (SEQ ID NO: 320) and 328383 (SEQ ID NO: 492), both targeted against mir-192, and ISIS 327905 (SEQ ID NO: 323), targeting mir-205, and ISIS 328403 (SEQ ID NO: 512), targeting mir-106. Cells treated with increasing concentrations of oligomeric compounds were compared to untreated cells, to assess the dose-dependency of the observed delay or arrest. The random-mer ISIS 29848 was used as a negative control. Cells were prepared for flow cytometry 48-hours after oligonucleotide treatment, as described, supra.

[1] = HeLa cells, 150 nM oligomeric compound, 24 hours, relative to untreated control (UTC = 100)
[2] = HeLa cells, 150 nM oligomeric compound
[3] = HeLa cells, 150 nM, 48 hours, relative to untreated control

Substance	phase of the cell cycle in which cells arrest or delay (150 nM, both 24 and 48 hours)	phase of the cell cycle in which cells arrest or delay (150 nM, time point not stated)	% cells aneuploid [1]	% cells in cell cycle phase G1 [1]	% cells in cell cycle phase G2/M [1]	% cells in cell cycle phase S [1]	% cells in cell cycle phase subG1 [1]	% cells in cell cycle phase: G1 [2]	% cells in cell cycle phase: G2/M [2]	% cells in cell cycle phase: S [2]	% cells in cell cycle phase: aneuploid [2]	% cells in cell cycle phase: subG1 [2]	% cells in cell cycle phase G1 [3]	% cells in cell cycle phase G2/M [3]	% cells in cell cycle phase S [3]	% cells in cell cycle phase aneuploid [3]	% cells in cell cycle phase subG1 [3]
ISIS 328707: SEQ ID NO: 616, targeting miR-100-1 (eG*e[5mC]*eA*eA*e[5mC]*dA*dG*dG*d[5mC]*d[5mC]*dT*d[5mC]*dA*dA*dT*eA*eT*e[5mC]*eT*eT)	G2/M-phase	–	–	–	–	–	–	–	–	–	–	–	–	–	–	–	–
ISIS 338678: SEQ ID NO: 505, targeted to the mir-205 pri-miRNA (CTGGTTGGGTATGAGACAGA; all 2'-MOE, all phosphorothioate, methylation of C not given here)	–	G2/M-phase	–	–	–	–	–	–	–	–	–	–	–	–	–	–	–
338833 (antisense TCGTGCACCTGAGGAGTCTG; all 2'-MOE, all phosphorothioate, methylation of C not given here) [compound 338833]	–	–	185%	150%	142%	56%	232%	44%	258%	106%	154%	1091%	87%	136%	100%	136%	255%
328727 (antisense e[5mC]*eT*eG*e[5mC]*eT*d[5mC]*d[5mC]*dA*dG*dA*dG*d[5mC]*d[5mC]*d[5mC]*dG*eA*eG*eT*e[5mC]*eG) [compound 328727]	–	–	161%	133%	105%	81%	245%	68%	124%	152%	140%	846%	–	–	–	–	–
